Measurements from US20260115185A1, “QUINOLINE DERIVATIVES WHICH ACT AS KAPPA-OPIOID RECEPTOR ANTAGONISTS” (The Scripps Research Institute, priority 2023, published 2026).
pIC50: −log10 of the molar value.

Legend:
mu opioid receptor (MOR) = target: T1, mu opioid receptor (MOR) (Homo sapiens, UniProt P35372); assay: OPRMu1 Discover X β-arrestin Assay, antagonist mode (U2OS cells, DAMGO EC80 challenge); type: cell-based
T1 construct: host or cells: U2OS (Discover X OPRMu1-U2OS, PathHunter)
Source text: OPRMu1 Discover X—β-arrestin Assay—Antagonist Mode. […] This assay evaluates the OPRMu1 activation in membrane recruitment of β-arrestin. In addition, the assay evaluates GPCR-β-arrestin proximity using low affinity fragment complementation of beta-galactosidase (beta-gal). The assay employs U20S cells, which express OPRMu1 fused to the complementary beta-gal fragment (enzyme acceptor). As designed, compounds that act as antagonists will prevent receptor activation resulting in reduced well luminescence. Compounds were tested in quadruplicate using a 10-point, 1:3 dilution series starting at a nominal concentration of 10 micromolar.
The Discover X OPRMu1-U20S cell line was cultured in 150 mm dishes at 37° C., 5% CO2 and 95% relative humidity (RH).
On Day 1 of the assay, 5000 cells in 20 μL of assay buffer (Discover X's Cell Plating Reagent 5) were seeded into each well of a 384 Corning 3570 standard white plate, and incubated 16-24 hours at 37° C., 5% CO2 and 95% RH.
On Day 2, 100 nL of test compound in DMSO were added to the appropriate wells and the plates were then incubated for 30 min at 37° C. 5% CO2 and 95% RH. Next, 2.2 μL of DAMGO OPRMu1 agonist (commercially available) or DMSO in assay media. (The EC80 Challenge consists of 1.8 μL of 3.7 μM DAMGO, 0.4 μL of Assay Buffer, with a final assay concentration of 303 nM). After incubation for 3 hours at 37° C. 5% CO2, and 95% RH, 10 μL of Path Hunter Detection Mix was added to each well, and the plate was then incubated at room temperature in the dark for 1 hour. Well luminescence was measured on Perkin Elmer's Envision.
(§1) The Percent Inhibition was calculated from the median ratio as follows:
• DMEM Medium, (Invitrogen 11965) • F12 Medium, (Invitrogen 11765) • Heat Inactivated Fetal Bovine Serum, (Invitrogen 10082147) • Non Essential Amino Acids 100× (Invitrogen 11140-050) • HEPES (pH 7.3) 1M, (Invitrogen 15630-080) • Sodium Pyruvate 100× (Invitrogen 11360-070) • Penicillin Streptomycin, (Invitrogen 15640) • Trypsin 0.25% EDTA (Invitrogen 25200056) • DPBS without Calcium/Magnesium (Invitrogen 14190-136) • DMSO Dry (Sigma D2650) • DAMGO OPRMu1 Agonist MW513.19 (Sigma E7384-5MG) • B-Funaltrexamine Hydrochloride OPRM1 Antagonist MW (SIGMA 0003-2MG) • PathHunter Cell Plating 5 Reagent (Discover X 93-0563R5A) • Corning 3750 Standard 384 well white plate with lid.
PathHunter Detection Mix (DiscoverX 93-0001): 1 part Galacton Star/5 parts Emerald II/19 parts PH Cell Assay Buffer.

[1] = target: T2, kappa opioid receptor (KOR) (Homo sapiens, UniProt P41145); assay: OPRKappa 1 Tango B-Arrestin Assay, antagonist mode (Tango OPRK1-bla U2OS cells, U50488 EC80 challenge); type: cell-based; details: for Selectivity (MOR/KOR): Kappa selectivity, MOR IC50 / KOR IC50; for pIC50: antagonist mode, Tango OPRK1-bla U2OS cells, 6 nM U50488 challenge
T2 construct: host or cells: U2OS (Tango OPRK1-bla U2OS)
Source text: OPRKappa 1 Tango B-Arrestin Assay Protocol-Antagonist Mode. […] The assay uses Tango OPRK1-bla U2OS cells which express OPRK1 linked to a GAL4-VP16 transcription factor via a TEV protease site. The cells also express a β-arrestin/TEV protease fusion protein and a β-lactamase (BLA) reporter gene under the control of a UAS response element. Stimulation of the OPRK1 receptor by agonist causes migration of the β-arrestin fusion protein to the GPCR, and through proteolysis liberates GAL4-VP16 from the receptor. The liberated VP16-GAL4 migrates to the nucleus, where it induces transcription of the BLA gene. BLA expression is monitored by measuring fluorescence resonance energy transfer (FRET) of a cleavable, fluorogenic, cell-permeable BLA substrate. As designed, test compounds that are OPRK1 antagonists inhibit agonist activation and migration of the fusion protein, thus preventing proteolysis of GAL4-VP16 and BLA transcription, leading to no increase in well FRET. Compounds were tested in quadruplicate using a 10-point, 1:3 dilution series starting at a nominal concentration of 10 micromolar.
The Tango OPRK1-U20S Dividing cell line was routinely cultured in 150 mm dishes at 37C, 5% CO2 and 95% relative humidity (RH).
On Day 1 of the assay, 16,000 cells in 10 μL of assay media (DMEM-Glutamax—with Sodium Pyruvate, 10% fetal bovine serum stripped with charcoal-dextran (CDS), 25 mM HEPES, 0.1 mM non-essential amino acids, antibiotic mix (penicillin streptomycin)) were seeded into each well of a 384 Greiner 788092 black low profile, clear bottom, low volume plate, and incubated 16-24 hours at 37° C., 5% CO2 and 95% (RH).
On Day 2, 50 nL of test compound in DMSO was added to the appropriate wells and plates were incubated for 30 min at 37° C. 5% CO2 and 95% (RH). Next was added 0.65 μL of commercially available U50488 OPRK1 agonist or DMSO in assay media: this EC80 Challenge consists of 0.6 μL of 111 nM U50488 to yield a final assay concentration of 6 nM). After incubation for 4 hours at 37° C., 5% CO2 and 95% (RH), 2.5 μL of LiveBLazer™FRET B/G (CCF4-AM) Mix (Soln.'s A,B,C,&D) was added to each well and incubated at room temperature in the dark for 2 hours. Well fluorescence was measured on Perkin Elmer's Envision using an Excitation filter 409 nm, Emission filters at 460 nm and […], bottom read.
as §1
• Tango™OPRK1-bla U20S Cells (Invitrogen K1576) • McCoy's 5A Medium, (Invitrogen 16600-082) • Dialyzed Fetal Bovine Serum, (Invitrogen 26400-036) • Non Essential Amino Acids 100× (Invitrogen part 11140-050) • HEPES (pH 7.3) 1M, (Invitrogen 15630-080) • Sodium Pyruvate 100× (Invitrogen 11360-070) • Penicillin Streptomycin, (Invitrogen 15640) • Trypsin 0.25% EDTA (Invitrogen 25200056) • DPBS without Calcium/Magnesium (Invitrogen 14190-136) • DMEM, High Glucose, GlutaMAX (Invitrogen 10569-010) • Fetal Bovine Serum, Charcoal Stripped (Invitrogen 12676-011) • DMSO Dry (Sigma D2650) • U50488 OPRK1 Agonist MW410.29 (Tocris 67198-19-0) • GNTI dihydrochloride OPRK1 Antagonist MW571.5 (Tocris 1282) • Nor-Binaltorphimine dihydrochloridc MW770.75 (Tocris 0347)
LiveBLAzere™-FRET/BG Loading Mix: (Invitrogen K1030 (5 mg)), composed of Solutions A, B, C, and D: • Solution A (6 μL): LiveBLAzer™-FRET/BG Substrate (CCF4-AM) • Solution B (60 μL) • Solution C (904 μL) • Solution C (must add 250 μl of 1N NaOH to 45 mL of Solution C prior to use) • Solution D (30 μL) [Probinicid] (Sigma P8161) make 200 mM stock in NaOH—H2O.

T2 sequence (P41145 whole entry): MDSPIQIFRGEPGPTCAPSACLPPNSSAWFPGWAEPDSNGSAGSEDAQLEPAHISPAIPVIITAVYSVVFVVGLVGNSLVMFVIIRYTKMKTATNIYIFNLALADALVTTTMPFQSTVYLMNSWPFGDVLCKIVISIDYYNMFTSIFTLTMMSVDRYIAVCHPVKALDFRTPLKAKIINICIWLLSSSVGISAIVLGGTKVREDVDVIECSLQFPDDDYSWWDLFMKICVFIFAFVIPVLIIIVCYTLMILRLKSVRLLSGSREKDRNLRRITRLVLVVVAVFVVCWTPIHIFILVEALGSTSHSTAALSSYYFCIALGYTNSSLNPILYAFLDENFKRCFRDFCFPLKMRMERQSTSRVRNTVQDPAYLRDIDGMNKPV
T1 sequence (P35372 whole entry): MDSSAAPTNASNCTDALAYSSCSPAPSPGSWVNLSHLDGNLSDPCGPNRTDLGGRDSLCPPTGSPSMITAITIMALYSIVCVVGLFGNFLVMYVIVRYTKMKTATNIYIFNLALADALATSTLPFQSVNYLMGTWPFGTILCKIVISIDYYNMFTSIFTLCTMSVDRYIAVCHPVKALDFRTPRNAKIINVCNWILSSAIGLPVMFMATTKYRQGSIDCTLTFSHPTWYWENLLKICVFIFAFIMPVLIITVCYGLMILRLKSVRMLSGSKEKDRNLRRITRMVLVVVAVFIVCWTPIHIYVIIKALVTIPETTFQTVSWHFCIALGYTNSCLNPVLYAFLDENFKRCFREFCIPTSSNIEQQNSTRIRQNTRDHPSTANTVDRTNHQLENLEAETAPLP

| SMILES | pIC50 (mu opioid receptor (MOR)) | Selectivity (MOR/KOR) [1] | pIC50 [1] |
| --- | --- | --- | --- |
| CCc1cc(F)c2nc(N3CC[C@@H]4[C@@H](CCN4[C@@H]4CCCOC4)C3)c(-c3ccn(C)n3)c(C)c2c1 [Compound 124] | < 6.00 | +++ (between 100- to 1000-fold selective) | 7.00 to 8.00 |
| CCc1cc(-c2ccnn2C)c2nc(N3CCC(N[C@H]4CCOC[C@@H]4F)CC3)c(-c3ccn(C)n3)c(C)c2c1 [Compound 9, 1-(6-ethyl-4-methyl-3-(1-methyl-1H-pyrazol-3-yl)-8-(1-methyl-1H-pyrazol-5-yl)quinolin-2-yl)-N-((3R,4S)-3-fluorotetrahydro-2H-pyran-4-yl)piperidin-4-amine] | 6.00 to 7.00 | +++ (between 100- to 1000-fold selective) | > 9.00 |
| CCc1cc(F)c2nc(N3CC[C@H](N[C@@H]4CCCOC4)C[C@H]3C)c(-c3cc(C)no3)c(C)c2c1 [Compound 142] | 7.00 to 8.00 | +++ (between 100- to 1000-fold selective) | > 9.00 |
| CCc1cc(F)c2nc(N3CCN(C(=O)C4CN(C)C4)C[C@H]3C)c(-c3nc(C)no3)c(C)c2c1 [Compound 45] | < 6.00 | ++ (between 10- and 100-fold selectivity) | 7.00 to 8.00 |
| CCc1cc(F)c2nc(N3CCN(C(=O)[C@@H](C)N4CC[C@@H](F)C4)C[C@H]3C)c(-c3nc(C)no3)c(C)c2c1 [Compound 147] | 6.00 to 7.00 | +++ (between 100- to 1000-fold selective) | 8.00 to 9.00 |
| CCc1cc(C#N)c2nc(N3CCC(N[C@@H]4CCOC[C@@H]4F)CC3)c(-c3ccn(C)n3)c(C)c2c1 [Compound 78] | 7.00 to 8.00 | ++ (between 10- and 100-fold selectivity) | > 9.00 |
| CCc1cc(F)c2nc(N3CC[C@H](N[C@@H]4CCCOC4)[C@@H](C)C3)c(-c3ccn(C)n3)c(C)c2c1 [Compound 112] | < 6.00 | +++ (between 100- to 1000-fold selective) | 8.00 to 9.00 |
| CCc1cc(F)c2nc(N3CCC(N[C@@H]4CCOC[C@H]4O)CC3)c(-c3cc(C)n(C)n3)c(C)c2c1 [Compound 17, (3S,4R)-4-((1-(3-(1,5-dimethyl-1H-pyrazol-3-yl)-6-ethyl-8-fluoro-4-methylquinolin-2-yl)piperidin-4-yl)amino)tetrahydro-2H-pyran-3-ol] | 6.00 to 7.00 | ++ (between 10- and 100-fold selectivity) | 8.00 to 9.00 |
| CCc1cc(C#N)c2nc(N3CCC(N[C@H]4CCOC[C@@H]4F)CC3)c(-c3ccn(C)n3)c(C)c2c1 [Compound 77] | 6.00 to 7.00 | +++ (between 100- to 1000-fold selective) | > 9.00 |
| CCc1cc(-c2ccnn2C)c2nc(N3CC[C@@H](NC4CCOCC4)[C@@H](F)C3)c(-c3ccn(C)n3)c(C)c2c1 [Compound 15, (3S,4R)-1-(6-ethyl-4-methyl-3-(1-methyl-1H-pyrazol-3-yl)-8-(1-methyl-1H-pyrazol-5-yl)quinolin-2-yl)-3-fluoro-N-(tetrahydro-2H-pyran-4-yl)piperidin-4-amine] | 7.00 to 8.00 | ++ (between 10- and 100-fold selectivity) | 8.00 to 9.00 |
| CCc1cc(F)c2nc(N3CCN(C(=O)C(C)(C)N4CCCC4)C[C@H]3C)c(-c3cc(C)no3)c(C)c2c1 [Compound 179] | < 6.00 | ++ (between 10- and 100-fold selectivity) | 7.00 to 8.00 |
| CCc1cc(F)c2nc(N3CC[C@@H](N[C@@H]4CCCOC4)[C@H](C)C3)c(-c3ccn(C)n3)c(C)c2c1 [Compound 114] | 6.00 to 7.00 | ++ (between 10- and 100-fold selectivity) | 8.00 to 9.00 |
| CCc1cc(-c2ccnn2C)c2nc(N3CCN(C[C@@H]4CCOC4)C[C@H]3C)c(-c3ccn(C)n3)c(C)c2c1 [Compound 97] | < 6.00 | +++ (between 100- to 1000-fold selective) | 8.00 to 9.00 |
| CCc1cc(F)c2nc(N3CC[C@H]4[C@H](CCN4C[C@@H]4CCCOC4)C3)c(-c3ccn(C)n3)c(C)c2c1 [Compound 130] | < 6.00 | ++ (between 10- and 100-fold selectivity) | 7.00 to 8.00 |
| CCc1cc(-c2ccnn2C)c2nc(N3CCC(N4CCOC[C@H]4C)CC3)c(-c3ccn(C)n3)c(C)c2c1 [Compound 93] | < 6.00 |  | < 6.00 |
| CCc1cc(F)c2nc(N3CC[C@@H](N[C@@H]4CCOC4)[C@H](F)C3)c(-c3ccn(C)n3)c(C)c2c1 [Compound 196, (3R,4R)-1-(6-ethyl-8-fluoro-4-methyl-3-(1-methyl-1H-pyrazol-3-yl)quinolin-2-yl)-3-fluoro-N—((R)-tetrahydrofuran-3-yl)piperidin-4-amine] | < 6.00 | +++ (between 100- to 1000-fold selective) | 8.00 to 9.00 |
| CCc1cc(F)c2nc(N3[C@H](C)CN(C(=O)CN4CCCC4)C[C@H]3C)c(-c3nc(C)no3)c(C)c2c1 [Compound 161] | 6.00 to 7.00 | +++ (between 100- to 1000-fold selective) | > 9.00 |
| CCc1cc(F)c2nc(N3CC[C@H](N[C@@H]4CCOC4)C[C@@H]3C)c(-c3ccn(C)n3)c(C)c2c1 [Compound 117] | 6.00 to 7.00 | +++ (between 100- to 1000-fold selective) | 8.00 to 9.00 |
